Measurements from ChEMBL document CHEMBL6078677, “Discovery and optimization of tetrahydroacridine derivatives as a novel class of antibiotics against multidrug-resistant Gram-positive pathogens by targeting type I signal peptidase and disrupting bacterial membrane” (Eur J Med Chem, 2025).
≈ marks a conversion by molar mass, not a printed value. Calls of active or inactive are those of the source. No cut-off for these calls is given here.

What was measured:
Staphylococcus aureus [1] = test: Antimicrobial activity against Staphylococcus aureus ATCC 29213 assessed as inhibition of visible growth of bacteria incubated for 20 hrs by broth microdilution method; format: functional
Enterococcus faecalis = test: microbe, parasite or virus in culture; format: functional; conditions: SF23-1, time 20 hrs
Description: Antimicrobial activity against Enterococcus faecalis SF23-1 harboring erythromycin-resistance rRNA methylase B, tetracycline efflux protein L and chloramphenicol-florfenicol resistance methylase assessed as inhibition of visible growth of bacteria incubated for 20 hrs by broth microdilution method

Staphylococcus aureus [2] = test: Antimicrobial activity against Staphylococcus aureus YZSA-21 harboring erythromycin resistance rRNA methylase C assessed as inhibition of visible growth of bacteria incubated for 20 hrs by broth microdilution method; format: functional
Staphylococcus aureus [3] = test: microbe, parasite or virus in culture; format: functional; conditions: M147-2, time 20 hrs
Description: Antimicrobial activity against Staphylococcus aureus M147-2 harboring erythromycin resistance rRNA methylase B, tetracycline efflux protein L and chloramphenicol-florfenicol resistance methylase assessed as inhibition of visible growth of bacteria incubated for 20 hrs by broth microdilution method

Enterococcus faecium = test: Antimicrobial activity against Enterococcus faecium HFY01 assessed as inhibition of visible growth of bacteria incubated for 20 hrs by broth microdilution method; format: functional
Streptococcus suis = test: microbe, parasite or virus in culture; format: functional; conditions: SH0918, time 20 hrs
Description: Antimicrobial activity against Streptococcus suis SH0918 harboring erythromycin-resistance rRNA methylase B, tetracycline efflux protein O and oxazolidinone phenicol transferable resistance gene assessed as inhibition of visible growth of bacteria incubated for 20 hrs by broth microdilution method

Streptococcus pyogenes = test: Antimicrobial activity against Streptococcus pyogenes DL02 harboring erythromycin-resistance rRNA methylase B assessed as inhibition of visible growth of bacteria incubated for 20 hrs by broth microdilution method; format: functional
Streptococcus agalactiae = test: Antimicrobial activity against Streptococcus agalactiae DL03 harboring erythromycin-resistance rRNA methylase B assessed as inhibition of visible growth of bacteria incubated for 20 hrs by broth microdilution method; format: functional
Klebsiella pneumoniae = test: Antimicrobial activity against Klebsiella pneumoniae 9-1 assessed as inhibition of visible growth of bacteria incubated for 20 hrs by broth microdilution method; format: functional
Acinetobacter baumannii [4] = test: Antimicrobial activity against Acinetobacter baumannii AB11 assessed as inhibition of visible growth of bacteria incubated for 20 hrs by broth microdilution method; format: functional
Acinetobacter baumannii [5] = test: Antimicrobial activity against Acinetobacter baumannii 7979 assessed as inhibition of visible growth of bacteria incubated for 20 hrs by broth microdilution method; format: functional
[6] = Cytotoxicity against human HEp-2 cells assessed as reduction in cell viability incubated for 48 hrs by CCK8 assay; format: toxicity, cell-based
[7] = Cytotoxicity against human Caco-2 cells assessed as reduction in cell viability incubated for 48 hrs by CCK8 assay; format: toxicity, cell-based
[8] = Cytotoxicity against human HEp-2 cells assessed as cell viability at 8 times of MIC incubated for 48 hrs by CCK8 assay (reference value: 100 %); format: toxicity, cell-based; conditions: read-out: Activity
[9] = Cytotoxicity against human Caco-2 cells assessed as cell viability at 8 times of MIC incubated for 48 hrs by CCK8 assay (reference value: 99.54 %); format: toxicity, cell-based; conditions: read-out: Activity
[10] = Cytotoxicity against human Caco-2 cells assessed as cell viability at 4 times of MIC incubated for 48 hrs by CCK8 assay (reference value: 99.54 %); format: toxicity, cell-based; conditions: read-out: Activity
[11] = Cytotoxicity against human Caco-2 cells assessed as cell viability at 2 times of MIC incubated for 48 hrs by CCK8 assay (reference value: 99.54 %); format: toxicity, cell-based; conditions: read-out: Activity
[12] = Cytotoxicity against human Caco-2 cells assessed as cell viability at 1 time of MIC incubated for 48 hrs by CCK8 assay (reference value: 99.54 %); format: toxicity, cell-based; conditions: read-out: Activity
[13] = Hemolytic activity in Kunming mouse erythrocytes measured after 1 hrs by absorbance based assay; format: toxicity, cell-based, Erythrocyte
[14] = Hemolytic activity in Kunming mouse erythrocytes assessed as hemolysis at 16 times of MIC measured after 1 hrs by absorbance based assay relative to control; format: toxicity, cell-based, Erythrocyte; conditions: read-out: Activity
[15] = Hemolytic activity in Kunming mouse erythrocytes assessed as hemolysis at 8 times of MIC measured after 1 hrs by absorbance based assay relative to control; format: toxicity, cell-based, Erythrocyte; conditions: read-out: Activity
[16] = Hemolytic activity in Kunming mouse erythrocytes assessed as hemolysis at 2 times of MIC measured after 1 hrs by absorbance based assay relative to control; format: toxicity, cell-based, Erythrocyte; conditions: read-out: Activity
[17] = Hemolytic activity in Kunming mouse erythrocytes assessed as hemolysis at 1 time of MIC measured after 1 hrs by absorbance based assay relative to control; format: toxicity, cell-based, Erythrocyte; conditions: read-out: Activity
[18] = Acute toxicity in ICR mouse model assessed as effect on animal survival at 25 to 100 mg/kg, IG administered for 7 days; format: organism-based; conditions: in vivo, po, 168 h, dose 25-100 mg/kg, time 7 day
[19] = Acute toxicity in ICR mouse model assessed as change in liver pathology at 25 to 100 mg/kg, IG administered for 7 days by H and E staining based analysis; format: organism-based; conditions: in vivo, po, 168 h, dose 25-100 mg/kg, time 7 day
[20] = Acute toxicity in ICR mouse model assessed as change in spleen pathology at 25 to 100 mg/kg, IG administered for 7 days by H and E staining based analysis; format: organism-based; conditions: in vivo, po, 168 h, dose 25-100 mg/kg, time 7 day
Cell membrane = test: Disruption of cell membrane integrity in Staphylococcus aureus ATCC 29213 assessed as appearance of rupture surface at 0.5 to 2 times of MIC by scanning electron microscopic analysis; format: subcellular
Staphylococcus aureus [21] = test: Antibiofilm activity against Staphylococcus aureus ATCC 29213 assessed as eradication of preformed biofilm measured after 72 hrs by crystal violet staining based analysis; format: functional, organism-based
Staphylococcus aureus [22] = test: Disruption of preformed biofilm in Staphylococcus aureus ATCC 29213 assessed as increase in red fluorescence at 0.5 to 2 times of MIC measured after 72 hrs by SYTO-9/PI staining based CLSM imaging analysis; format: functional, organism-based
[23] = Metabolic stability in rat liver microsomes assessed as half-life at 100 uM preincubated for 5 mins followed by NADPH addition and measured upto 60 mins by LC-MS/MS analysis; format: ADME, Microsome; conditions: time < 65 min
[24] = Metabolic stability in human liver microsomes assessed as intrinsic clearance at 100 uM preincubated for 5 mins followed by NADPH addition and measured upto 60 mins by LC-MS/MS analysis; format: ADME, Microsome; conditions: time < 65 min, read-out: CLH
[25] = Metabolic stability in rat liver microsomes assessed as intrinsic clearance at 100 uM preincubated for 5 mins followed by NADPH addition and measured upto 60 mins by LC-MS/MS analysis; format: ADME, Microsome; conditions: time < 65 min, read-out: CLH
[26] = Metabolic stability in mouse liver microsomes assessed as intrinsic clearance at 100 uM preincubated for 5 mins followed by NADPH addition and measured upto 60 mins by LC-MS/MS analysis; format: ADME, Microsome; conditions: time < 65 min, read-out: CLH
[27] = Metabolic stability in mouse liver microsomes assessed as hepatic extraction ratio at 100 uM preincubated for 5 mins followed by NADPH addition and measured upto 60 mins by LC-MS/MS analysis; format: ADME, Microsome; conditions: time < 65 min, read-out: ERH
[28] = Metabolic stability in rat liver microsomes assessed as hepatic extraction ratio at 100 uM preincubated for 5 mins followed by NADPH addition and measured upto 60 mins by LC-MS/MS analysis; format: ADME, Microsome; conditions: time < 65 min, read-out: ERH
Staphylococcus aureus [29] = test: Antibacterial activity against methicillin-resistant Staphylococcus aureus YZSA-24 infected in cyclophosphamide-induced neutrophil depleted female ICR mouse model of skin infection assessed as log reduction in bacterial load at 2.5 %, TOP preadministered with cyclophosphamide for 5 days followed by bacterial administration and measured after 25 hrs of compound administration relative to vehicle group; format: functional
Staphylococcus aureus [30] = test: Antibacterial activity against methicillin-resistant Staphylococcus aureus YZSA-24 infected in cyclophosphamide-induced neutrophil depleted female ICR mouse model of skin infection assessed as log reduction in bacterial load at 1 %, TOP preadministered with cyclophosphamide for 5 days followed by bacterial administration and measured after 25 hrs of compound administration relative to ampicillin group; format: functional

With CC1C/C(=C\c2ccc(-c3ccc(Cl)c(C(F)(F)F)c3)s2)c2nc3ccccc3c(C(=O)O)c2C1 (racemic) the MIC (Staphylococcus aureus [1]) was 1 µg/mL (≈ 1.95 µM), the MIC (Enterococcus faecalis) was 1 µg/mL (≈ 1.95 µM) and the MIC (Staphylococcus aureus [2]) was 1 µg/mL (≈ 1.95 µM). The MIC (Staphylococcus aureus [3]) was 1 µg/mL (≈ 1.95 µM), the MIC (Enterococcus faecium) was 2 µg/mL (≈ 3.89 µM) and the MIC (Streptococcus suis) was 16 µg/mL (≈ 31.1 µM). The MIC (Streptococcus pyogenes) was 16 µg/mL (≈ 31.1 µM), the MIC (Streptococcus agalactiae) was 32 µg/mL (≈ 62.3 µM) and the MIC (Klebsiella pneumoniae) was greater than 128 µg/mL. It also gave an MIC (Acinetobacter baumannii [4]) greater than 128 µg/mL, an MIC (Acinetobacter baumannii [5]) greater than 128 µg/mL and a CC50 at 48 h [6] of 14.7 µg/mL (≈ 28.5 µM). For the same compound, the CC50 at 48 h [7] was 21.9 µg/mL (≈ 42.7 µM), the viability at 48 h, 8 times of MIC [8] was 82.5% and the viability at 48 h, 8 times of MIC [9] was 72.8%. For the same compound, the viability at 48 h, 4 times of MIC [10] was 92.9%, the viability at 48 h, 2 times of MIC [11] was 96.6% and the viability at 48 h, 1 time of MIC [12] was 96.6%. The HC50 at 1 h [13] was 13.3 µg/mL, the hemolysis at 1 h, 16 times of MIC [14] was 74% and the hemolysis at 1 h, 8 times of MIC [15] was 5.4%. The hemolysis at 1 h, 2 times of MIC [16] was 0%, the hemolysis at 1 h, 1 time of MIC [17] was 0% and the Activity [18] was “Non-toxic”. For the same compound, the Activity [19] was “Non-toxic”, the Activity [20] was “Non-toxic” and the Activity (Cell membrane) was “Active”. The Activity (Staphylococcus aureus [21]) was “Dose-dependent-effect”, the Activity (Staphylococcus aureus [22]) was “Active” and the half-life at 100 µM [23] was greater than 3.08 h. The microsomal CLint at 100 µM [24] was less than 7.5 µL/min/mg, the microsomal CLint at 100 µM [25] was less than 7.5 µL/min/mg and the microsomal CLint at 100 µM [26] was less than 7.5 µL/min/mg. It also gave a hepatic extraction ratio at 1 h, 100 µM [27] of less than 0.26, a hepatic extraction ratio at 1 h, 100 µM [28] of less than 0.21 and an Activity (Staphylococcus aureus [29]) of 2.36 log10CFU/ml. The Activity (Staphylococcus aureus [30]) was 1.21 log10CFU/ml.
